Experiment: photoluminescence quantum yield (fraction); solvent given as SMILES
[1] = in c1cc(-n2c3ccccc3c3ccccc32)cc(-n2c3ccccc3c3ccccc32)c1

## CN(C)c1ccc(-c2ccc(-c3cc(N4CCCCC4)c(C#N)c4c3-c3ccccc3CC4)cc2)cc1
In C1CCOC1
  photoluminescence quantum yield: 0.68

## COc1ccc(Oc2ccc3c4c(cccc24)C(=O)N(c2c(C(C)C)cccc2C(C)C)C3=O)cc1
In ClCCl
  photoluminescence quantum yield: 0.002

## CCCCCCCCCCCCCCCCCCOC(=O)/C=C/C1=CC2=C(c3c(C)cc(C)cc3C)c3cc(/C=C/C(=O)OCCCCCCCCCCCCCCCCCC)cn3[B-](F)(F)[N+]2=C1
In ClCCl
  photoluminescence quantum yield: 0.34

## C(=C1c2ccccc2CCc2ccccc21)c1ccc(-c2cc(-c3ccc(C=C4c5ccccc5CCc5ccccc54)cc3)cc(-c3ccc(C=C4c5ccccc5CCc5ccccc54)cc3)c2)cc1
In C1CCOC1
  photoluminescence quantum yield: 0.0045

## CN(C)c1ccc(C(=O)Nc2cccc(Cl)c2)cc1
In C1CCCCC1
  photoluminescence quantum yield: 0.0031
In C1CCOC1
  photoluminescence quantum yield: 0.0263
In CC#N
  photoluminescence quantum yield: 0.0319
In CCOCC
  photoluminescence quantum yield: 0.0103

## O=S(=O)(c1ccc(-c2ccc3c(c2)c2ccccc2n3-c2ccccc2)cc1)c1ccc(-c2ccc3c(c2)c2ccccc2n3-c2ccccc2)cc1
In Cc1ccccc1
  photoluminescence quantum yield: 1

## Cc1ccc(C2=C(c3ccc(C)cc3)c3cccc4c3c(cc3nc5ccccc5nc34)O2)cc1
In ClCCl
  photoluminescence quantum yield: 0.43

## CC(C)(C)OC(=O)CN1CCN(c2ccc3c(-c4ccc(I)cc4)c4ccc(=[N+]5CCN(CC(=O)OC(C)(C)C)CC5)cc-4oc3c2)CC1
In ClCCl
  photoluminescence quantum yield: 0.007

## N#CC(C#N)=Cc1ccc2nc(C#Cc3ccc(N(c4ccc(C#Cc5nc6ccc(C=C(C#N)C#N)cc6s5)cc4)c4ccc(C#Cc5nc6ccc(C=C(C#N)C#N)cc6s5)cc4)cc3)sc2c1
In Cc1ccccc1
  photoluminescence quantum yield: 0.61

## COc1cc(OC)cc(C2=C3C(C)=C(I)C(C)=[N+]3[B-](F)(F)n3c(C)c(I)c(C)c32)c1
In CS(C)=O
  photoluminescence quantum yield: 0.03

## N#CC1=c2c3cccc4cccc(c43)n2[B-](F)(F)[n+]2ccccc21
In C1CCOC1
  photoluminescence quantum yield: 0.86
In CC#N
  photoluminescence quantum yield: 0.96
In CCCCCC
  photoluminescence quantum yield: 0.75
In Cc1ccccc1
  photoluminescence quantum yield: 0.75
In ClCCl
  photoluminescence quantum yield: 0.88

## CC(C)(C)c1ccc2c(c1)c1cc(C(C)(C)C)ccc1n2-c1ccc(C#Cc2ccc(C=C(C#N)C#N)cc2)cc1
In CC#N
  photoluminescence quantum yield: 0.33
In CCCCC
  photoluminescence quantum yield: 0.5
In Cc1ccccc1
  photoluminescence quantum yield: 0.48
In ClCCl
  photoluminescence quantum yield: 0.4

## C(=C\c1ncc(-c2ccc(OCc3ccccc3)c(OCc3ccccc3)c2)o1)/c1cccc(N2CCCC2)c1
In ClCCl
  photoluminescence quantum yield: 0.35

## COc1ccc(O)c(-c2nc(C)c3n2CCCC3)c1
In ClCCl
  photoluminescence quantum yield: 0.11

## N#Cc1ccc(/C=C/c2ccc3ccc4cccc5ccc2c3c45)cc1
In CC1CCCCC1
  photoluminescence quantum yield: 0.8
In CC#N
  photoluminescence quantum yield: 0.26
In CO
  photoluminescence quantum yield: 0.26
In Cc1ccccc1
  photoluminescence quantum yield: 0.79
In ClC(Cl)Cl
  photoluminescence quantum yield: 0.3

## c1ccc([B-]2(c3ccccc3)Oc3ccc4ccccc4c3-c3c4ccccc4cn[n+]32)cc1
In Cc1ccccc1
  photoluminescence quantum yield: 0.15

## CCCCCCCCCCCCOc1cc(C(=O)Nc2ccc(-c3ccc4c(c3)C(=O)c3cc(-c5ccc(NC(=O)c6cc(OCCCCCCCCCCCC)c(OCCCCCCCCCCCC)c(OCCCCCCCCCCCC)c6)cc5)ccc3-4)cc2)cc(OCCCCCCCCCCCC)c1OCCCCCCCCCCCC
In C1CCOC1
  photoluminescence quantum yield: 0.06

## CCOC(=O)CC[N+]1=c2cc3c(cc2CCC1)=Cc1c(c2ccc(N(C)C)cc2oc1=O)O3
In CC#N
  photoluminescence quantum yield: 0.217
In CO
  photoluminescence quantum yield: 0.152
In ClCCl
  photoluminescence quantum yield: 0.469
In O
  photoluminescence quantum yield: 0.03

## N#CC(C#N)=Cc1ccc(-c2ccc(O)c(-c3nc4ccccc4s3)c2)o1
In CCO
  photoluminescence quantum yield: 0.0357
In ClCCl
  photoluminescence quantum yield: 0.016

## CCC12C(=C3C(=C4c5ccc(-c6ccccc6)cc5S(=O)(=O)C41CC)C(F)(F)C(F)(F)C3(F)F)c1ccc(-c3ccccc3)cc1S2(=O)=O (centres undefined)
In C1COCCO1
  photoluminescence quantum yield: 0.87

## O=[N+]([O-])c1ccc(/C=C/c2nc3c4ccccc4c4ccccc4c3o2)cc1
In CC#N
  photoluminescence quantum yield: 0.2

## CC(C)[Si](C#Cc1c2cc3ccccc3cc2c(C#C[Si](C(C)C)(C(C)C)C(C)C)c2nc3cc4c(cc3nc12)C1c2ccccc2C4c2ccccc21)(C(C)C)C(C)C
In CCCCCC
  photoluminescence quantum yield: 0.45
In ClCCl
  photoluminescence quantum yield: 0.11

## Cc1cc(-c2ccc(N(c3ccccc3)c3ccccc3)cc2)c2nsnc2c1-c1ccc(C(C)(C)C)cc1
In ClCCl
  photoluminescence quantum yield: 0.19

## c1ccc(C2=Nc3cccc4[n+]3[B-](c3ccccc3)(N2)NC(c2ccccc2)=N4)cc1
In ClCCl
  photoluminescence quantum yield: 0.13

## COCCOCCOCCOCC(COCCOCCOCCOC)Oc1cc(/C=C/c2ccc(/C=C(\C#N)c3ccncc3)cc2)c(OC(COCCOCCOCCOC)COCCOCCOCCOC)cc1/C=C/c1ccc(/C=C(\C#N)c2ccncc2)cc1
In ClCCl
  photoluminescence quantum yield: 0.45

## C[N+]1=C(/C=C/C=C2/N(CCCc3ccccc3)c3ccccc3C2(C)C)C(C)(C)c2ccccc21
In CS(C)=O
  photoluminescence quantum yield: 0.08

## COC(=O)/C(C#N)=c1\s/c(=c2/s/c(=C(/C#N)C(=O)OC)c3cc(-c4ccccc4)sc23)c2sc(-c3ccccc3)cc12
In Cc1ccccc1
  photoluminescence quantum yield: 0.366

## COc1ccc(-c2csc(/C(C#N)=C/c3ccc(C(F)(F)F)cc3)n2)cc1
In CC#N
  photoluminescence quantum yield: 0.015

## O=S(=O)(c1cccc(N2c3ccccc3Sc3ccccc32)c1)c1cccc(N2c3ccccc3Sc3ccccc32)c1
In CCCCC(CC)n1c2ccc(-n3c4ccccc4c4ccccc43)cc2c2cc(-n3c4ccccc4c4ccccc43)ccc21
  photoluminescence quantum yield: 0.082
[1]
  photoluminescence quantum yield: 0.116

## N#C/C(=C\c1ccc([N+](=O)[O-])cc1)c1nc(-c2ccccc2)cs1
In CC#N
  photoluminescence quantum yield: 0.051

## CC(C)(C)c1cc(-c2cc3c(cc(-c4cc(C(C)(C)C)cc(C(C)(C)C)c4)n3-c3ccc(C(=C(c4ccccc4)c4ccccc4)c4ccccc4)cc3)n2-c2ccc(C(=C(c3ccccc3)c3ccccc3)c3ccccc3)cc2)cc(C(C)(C)C)c1
In ClCCl
  photoluminescence quantum yield: 0.0013

## CC1(C)c2ccccc2N(c2ccc(-c3ccc4c(c3)c3cc(-c5ccc(N6c7ccccc7C(C)(C)c7ccccc76)cc5)ccc3c3nc(C#N)c(C#N)nc43)cc2)c2ccccc21
In Cc1ccccc1
  photoluminescence quantum yield: 0.33
In O=P(c1ccccc1)(c1ccccc1)c1cccc(-c2cc(-n3c4ccccc4c4ccccc43)cc(-n3c4ccccc4c4ccccc43)c2)n1
  photoluminescence quantum yield: 0.65

## COc1ccc(-c2c3cc4ccccc4cc3c(C#Cc3ccccc3)c3cc4ccccc4cc23)cc1
In ClCCl
  photoluminescence quantum yield: 0.02

## COc1ccc2c(-c3nc(-c4ccccc4F)no3)cc(=O)oc2c1
In CCO
  photoluminescence quantum yield: 0.57
In ClC(Cl)Cl
  photoluminescence quantum yield: 0.25

## Cc1cc(-c2ccc(C(C)(C)C)cc2)c2nsnc2c1-c1ccc(C(C)(C)C)cc1
In ClCCl
  photoluminescence quantum yield: 0.14

## CCCCCCC(CCCCCC)N1C(=O)c2cccc3c(-c4ccc(OC)c5cccc(C)c45)ccc(c23)C1=O
In CCCCCC
  photoluminescence quantum yield: 0.34
In CCCCCCCCCCCCCC
  photoluminescence quantum yield: 0.34
In CCCCCCCCCCCO
  photoluminescence quantum yield: 0.28
In CCCCO
  photoluminescence quantum yield: 0.047
In CN(C)C=O
  photoluminescence quantum yield: 0.055
In Cc1ccccc1
  photoluminescence quantum yield: 0.19
In ClC(Cl)Cl
  photoluminescence quantum yield: 0.4

## O=P1(c2ccccc2)C(c2ccccc2)=Cc2cc3ccccc3cc21 (centres undefined)
In ClCCl
  photoluminescence quantum yield: 0.37

## CCCc1ccc(C#Cc2cc(C#Cc3ccc(CCC)cc3)c3ccc4c(C#Cc5ccc(N(C)C)cc5)cc(C#Cc5ccc(CCC)cc5)c5ccc2c3c54)cc1
In ClCCl
  photoluminescence quantum yield: 0.44

## CCCCCCCCCCCCCCCCCCOc1ccc([B-]23NC(c4ccccc4)=Nc4cccc([n+]42)N=C(c2ccccc2)N3)cc1
In ClCCl
  photoluminescence quantum yield: 0.14

## CCCCN(CCCC)c1ccc(C#Cc2cc(C#Cc3ccc(C(F)(F)F)cc3)c(C#Cc3ccc(N(CCCC)CCCC)cc3)cc2C#Cc2ccc(C(F)(F)F)cc2)cc1
In ClCCl
  photoluminescence quantum yield: 0.5

## CCOC(=O)CSc1nc(-c2ccccc2)c(C)c(C#N)c1C#N
In C1COCCO1
  photoluminescence quantum yield: 0.031
In CC#N
  photoluminescence quantum yield: 0.036
In CCO
  photoluminescence quantum yield: 0.037
In CCOC(C)=O
  photoluminescence quantum yield: 0.037
In ClC(Cl)Cl
  photoluminescence quantum yield: 0.033
In c1ccccc1
  photoluminescence quantum yield: 0.038

## CCOC(=O)C1=CNC=C(C(=O)OCC)C1c1ccccc1
In C1CCOC1
  photoluminescence quantum yield: 0.7
In CO
  photoluminescence quantum yield: 0.58

## Cc1c(OCC(=O)O)cc2c3c([nH]c2c1C)C(=O)CCC3
In C1COCCO1
  photoluminescence quantum yield: 0.009
In CC#N
  photoluminescence quantum yield: 0.027
In CCO
  photoluminescence quantum yield: 0.019
In CS(C)=O
  photoluminescence quantum yield: 0.089
In O
  photoluminescence quantum yield: 0.013
In c1ccccc1
  photoluminescence quantum yield: 0.008

## c1ccc2cc(-c3cc(-c4nccs4)nc(-c4nccs4)c3)ccc2c1
In CC#N
  photoluminescence quantum yield: 0.36
In CCCCCC
  photoluminescence quantum yield: 0.289
In CO
  photoluminescence quantum yield: 0.328
In ClC(Cl)Cl
  photoluminescence quantum yield: 0.166

## Fc1ccc(/C=C/c2nc3c4ccccc4c4ccccc4c3o2)cc1
In CC#N
  photoluminescence quantum yield: 0.24

## OB(O)c1ccc(-c2ccc(N(c3ccccc3)c3ccccc3)cc2)cc1
In C1CCCCC1
  photoluminescence quantum yield: 0.72
In C1CCOC1
  photoluminescence quantum yield: 0.65
In CC#N
  photoluminescence quantum yield: 0.68
In CCO
  photoluminescence quantum yield: 0.81
In CCOC(C)=O
  photoluminescence quantum yield: 0.66
In CCOCC
  photoluminescence quantum yield: 0.65
In CO
  photoluminescence quantum yield: 0.62

## CCCCCCCCCc1c2ccccc2cc2c1oc1c3c(c4ccccc4c12)-c1c(c2oc4cc5ccccc5cc4c2c2ccccc12)OCO3
In C1CCOC1
  photoluminescence quantum yield: 0.7

## COc1ccc(C2=N/C(=C\c3ccccc3)C(=O)O2)cc1OC
In C1COCCO1
  photoluminescence quantum yield: 0.02

## c1ccc(-c2nnc(-c3ccc(N4c5ccccc5N(c5ccccc5)c5ccccc54)cc3)n2-c2ccccc2)cc1
In Cc1ccccc1
  photoluminescence quantum yield: 0.07
[1]
  photoluminescence quantum yield: 0.42

## C(=C\c1ccc2ccccc2c1)/c1ccc(Nc2ccccc2)cc1
In CC#N
  photoluminescence quantum yield: 0.28
In CCCCCC
  photoluminescence quantum yield: 0.46

## C(#Cc1c2ccccc2c(-c2ccccc2)c2cc3ccccc3cc12)c1ccccc1
In ClCCl
  photoluminescence quantum yield: 0.79

## Cc1cc(C)c(C2=C3C=C(/C=C/C(=O)OCc4ccccc4)C=[N+]3[B-](F)(F)n3cccc32)c(C)c1
In ClCCl
  photoluminescence quantum yield: 0.36

## COCCOCCOCCOCC(COCCOCCOCCOC)Oc1cc(/C=C/c2ccc(/C=C(\C#N)C(=O)c3ccccc3)cc2)c(OC(COCCOCCOCCOC)COCCOCCOCCOC)cc1/C=C/c1ccc(/C=C(\C#N)C(=O)c2ccccc2)cc1
In ClCCl
  photoluminescence quantum yield: 0.23

## CCCCCCCCCCC(CCCCCCCCCC)Cn1c2cc(-c3ccc(C(C)(C)C)cc3)c3cccc4c5ccc6c7cc(-c8cc(C(C)(C)C)cc(C(C)(C)C)c8)n8c7c(c7cc1c(c5c76)c2c34)=C1C=CC(c2cc(C(C)(C)C)cc(C(C)(C)C)c2)=[N+]1[B-]8(F)F
In Cc1ccccc1
  photoluminescence quantum yield: 0.008

— the Deep4Chem optical property database
